Data taken from PubChem BioAssay (NCI).
Values joined by “and” are separate entries in the source; they are usually repeats but may differ in a detail not shown here. Equal values may be shown once.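 These data come from cells grown in 96-well plates and exposed to compound for 48 hours at five concentrations. At the GI50, growth is halved. At the TGI there is no net growth.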

Experiments:
Test in all cases: NCI tumour cell line growth inhibition, 48 h
KM20L2 colon = system: KM20L2 colon
RXF-631 renal = system: RXF-631 renal
HOP-18 NSCLC = system: HOP-18 NSCLC
M19-MEL melanoma = system: M19-MEL melanoma
P388 leukemia = system: P388 leukemia
DU-145 prostate = system: DU-145 prostate
P388/ADR leukemia = system: P388/ADR leukemia
MCF7 breast = system: MCF7 breast
MDA-N = system: MDA-N
T-47D breast = system: T-47D breast
MDA-MB-435 = system: MDA-MB-435
SN12K1 renal = system: SN12K1 renal

Row | SMILES | TGI (KM20L2 colon) | TGI (RXF-631 renal) [µM] | TGI (HOP-18 NSCLC) | TGI (M19-MEL melanoma) | other results
1 | Cc1cccc(C)c1N1C(=O)C(=O)C(c2nc3ccccc3s2)/C(=N/NC(=O)c2ccccc2O)C1=O (stereo not given) | > 100 µM | > 100 | 88.6 µM | > 100 µM | –
2 | CCOc1ccc(NCC2CC/C(=C\c3ccccc3OC)C2=O)cc1 (stereo not given) | 28.4 µM | 42.5 | 28.8 µM | 26.3 µM | –
3 | COC(=O)C(CC(=O)Nc1ccc(Cl)c(Cl)c1)C(=O)C(=O)Nc1ccc(Cl)c(Cl)c1 (stereo not given) | > 100 µM | > 100 | > 100 µM | > 100 µM | –
4 | CCCCCCCCCCCCCCCCOP(=O)([O-])OCC[N+](C)(C)C | – | – | > 100 µM | 41.3 µM | TGI (P388 leukemia): > 66.3 µM; GI50 (DU-145 prostate): 4.01 µM; TGI (DU-145 prostate): 14.7 µM and 39.9 µM; TGI (P388/ADR leukemia): > 86.6 µM; GI50 (MCF7 breast): 3.62 µM; TGI (MCF7 breast): 16 µM and 59.1 µM; TGI (MDA-N): 54.8 µM; GI50 (T-47D breast): 4.42 µM; TGI (T-47D breast): 16.2 µM and 35.9 µM; GI50 (MDA-MB-435): 2 µM; TGI (MDA-MB-435): 5.23 µM and 39.3 µM
5 | O=S(=O)(N=NC=C1c2ccccc2N(O)c2ccccc21)c1ccc(Cl)cc1 | > 100 µM | > 100 | > 100 µM | > 100 µM | –
6 | COC(=O)/C(C#N)=C(\N)C(Cl)(Cl)Cl | > 100 µM | 6.02 | – | 6.35 µM | –
7 | N/N=C(\c1nc2ccc(Cl)cc2[nH]c1=O)C(O)c1ccc(Cl)c(Cl)c1 (stereo not given) | > 100 µM | > 100 | – | > 100 µM | –
8 | CCCN(CCC)C(=O)c1nc(N)nc(-c2ccc(OC)cc2)c1-c1ccc(OC)cc1 | > 100 µM | > 100 | > 100 µM | – | –
9 | COC1CCC(OC)C(C2(C3CC(OC)CCC3OC)OC(=O)c3ccccc32)C1 (stereo not given) | > 100 µM | > 100 | > 100 µM | – | –
10 | O=C1CNC(=O)c2[nH]cnc2N1 | – | > 100 | > 100 µM | > 100 µM | –
11 | C#CC1(O)CCC2[C@@H]3CCc4cc(Oc5nc(F)nc(-c6c7ccccc7c(SCC)n6CCC)n5)ccc4C3CC[C@@]21C (stereo not given in full) | > 100 µM | > 100 | > 100 µM | > 100 µM | –
12 | O=C(Nc1ccccc1-c1nn(CN2CCNCC2)c(=S)n(CN2CCNCC2)c1=O)C(F)(F)F | – | 46.8 | 63.9 µM | 32.1 µM | –
13 | COc1cc(C(C)c2cc3c(cc2OCCNC(=O)COc2cc4c(cc2C(C)c2cc(OC)c(OC)c(OC)c2)OCO4)OCO3)cc(OC)c1OC (stereo not given) | > 100 µM | > 100 | – | > 100 µM | –
14 | CC1=NOC(=O)/C1=C/c1ccc([N+](=O)[O-])cc1 | > 100 µM | > 100 | > 100 µM | – | –
15 | C/C(CC(=O)Nc1ccccc1C)=N/NS(=O)(=O)c1ccc(C)cc1 | > 100 µM | > 100 | – | > 100 µM | –
16 | CO[C@H]1C[C@](C)(O)Cc2cc3c(c(O)c21)C(=O)c1c(O)cc2c(c1C3=O)O[C@@H]1O[C@@]2(C)[C@H](O)[C@@H](N(C)C)[C@@H]1O | 5.01 µM and 17.2 µM | 2.71 | 4.3 µM and 8.6 µM | 2.56 µM and 9.81 µM | TGI (P388 leukemia): 3.3 µM; GI50 (KM20L2 colon): 1.74 µM; TGI (SN12K1 renal): 2.15 µM; TGI (DU-145 prostate): 7.14 µM; TGI (P388/ADR leukemia): 16.1 µM; TGI (MCF7 breast): 8.86 µM; GI50 (HOP-18 NSCLC): 1.29 µM; TGI (MDA-N): 10.6 µM; TGI (T-47D breast): 17.4 µM; TGI (MDA-MB-435): 5.23 µM
17 | CCCCCCCC/C=C1\CCC(CN2CCOCC2)C1=O (stereo not given) | 33 µM | 64.8 | 25.8 µM | 26.3 µM | TGI (DU-145 prostate): 17.9 µM; TGI (MCF7 breast): 6.18 µM; TGI (MDA-N): 22.4 µM; TGI (T-47D breast): 4.57 µM; TGI (MDA-MB-435): 15.3 µM
18 | Cc1cc(C)c(C(=O)O)c(SSc2cc(C)cc(C)c2C(=O)O)c1 | > 100 µM | > 100 | – | > 100 µM | –
19 | CC(C)c1cccc(O)c(=O)c1 | > 100 µM | > 100 | > 100 µM | > 59.3 µM | GI50 (DU-145 prostate): 2.1 µg/mL; TGI (DU-145 prostate): 24.7 µg/mL; GI50 (MCF7 breast): 1.46 µg/mL; TGI (MCF7 breast): 5.08 µg/mL; GI50 (T-47D breast): 0.0075 µg/mL; TGI (T-47D breast): 0.0075 µg/mL; GI50 (MDA-MB-435): 2.14 µg/mL; TGI (MDA-MB-435): 39 µg/mL
20 | NCCNC(=O)c1cccc2cc3ccccc3nc12 | 12.5 µM | 16.7 | > 40.9 µM | 5.34 µM | –
21 | c1ccc(SC23C4C5C6C4C2C6C53)nc1 (stereo not given) | > 100 µM | > 100 | > 100 µM | > 100 µM | –
22 | N#CC(C#N)=Cc1ccc(CP(=O)(O)O)cc1 | > 100 µM | > 100 | > 100 µM | > 100 µM | –
23 | CC1CC(C)C2OC2(C)C[C@H](C)C(=O)NC(C)C(=O)N(C)[C@H](Cc2c(Br)[nH]c3ccccc23)C(=O)N[C@@H](c2ccc(O)cc2)CC(=O)O1 (stereo not given in full) | > 50.1 µM | > 100 | – | – | –
24 | COc1ccc2c(c1)NC1(O)c3ccccc3C(=O)C21O (stereo not given) | > 100 µM | > 100 | > 100 µM | > 100 µM | –
25 | CC(C)(C)N/N=C(\C(=O)Nc1nc(=S)[nH][nH]1)C1C(=O)Nc2ccccc2S1=O (stereo not given) | > 100 µM | > 100 | > 100 µM | > 100 µM | –
